{
  "source": "patent US20030181527A1",
  "about": "“Novel formulations of alpha-2,4-disulfophenyl-n-tert-butylnitrone” (priority 2000, published 2003)",
  "key": {"[1]": {"assay": "Effect of chelator resin Chelex-100 on stability of concentrated aqueous solution", "type": "physicochemical", "conditions": "100 mg/ml, 5.3 mM phosphate, pH 8.0", "description": "A concentrated aqueous solution of α-(2,4-disulfophenyl)-N-tert-butylnitrone disodium salt (100 mg/ml) and disodium hydrogen phosphate (5.3 mM) at pH 8.0 was passed overnight through a column of the chelator resin, Chelex-100®. The resulting solution was placed in portions (8 ml) into 10 ml glass vials which were then sealed. The starting level of the aldehyde (II) was 0.20%. After two months at +40° C. and 75% relative humidity the concentration of the aldehyde (II) had increased to 2.3%. In a control experiment where the treatment with the resin was omitted, the level of the aldehyde (II) increased to 3.0%."}, "[2]": {"assay": "Effect of concentration on stability, carbonate-buffered solutions, 40 days +40° C.", "type": "physicochemical", "conditions": "50 mM sodium hydrogen carbonate; for Final Amount of Aldehyde (II): 40 days +40° C./75% RH", "description": "In an experiment, aqueous solutions of three different concentrations of α-(2,4-disulfophenyl)-N-tert-butylnitrone disodium salt buffered with sodium hydrogen carbonate (50 mM) were dispensed into 20 ml glass vials, sealed, and then stored for 40 days at +40° C. and 75% relative humidity."}, "[3]": {"assay": "Photodegradation of aqueous solutions under indoor light", "type": "physicochemical", "conditions": "400 mg/ml aqueous concentrate, room temperature, 8 hours, disodium salt"}, "E. gergoviae": {"test_system": "E. gergoviae", "assay": "Antimicrobial efficacy (European Pharmacopoeia 2000, Chapter 5.1.3)", "type": "cell-based", "conditions": "for Number of CFUs per ml - Time after Inoculation: E. gergoviae", "description": "(§1) The antimicrobial efficacy was tested for three different solutions: […] iii) a carbonate buffer control. The tests were performed according to European Pharmacopoeia 2000, Chapter 5.1.3, pages 259 to 260. Seven 10 ml vials were inoculated, one per test organism. During the tests, the vials were stored at controlled room temperature and protected from light. At different time intervals, samples were withdrawn and after appropriate dilutions the numbers of viable microorganisms (colony forming units per ml, CFU/ml) were determined using standard plate count procedures."}, "S. aureus": {"test_system": "S. aureus", "assay": "Antimicrobial efficacy (European Pharmacopoeia 2000, Chapter 5.1.3)", "type": "cell-based", "description": "as §1"}, "C. albicans": {"test_system": "C. albicans", "assay": "Antimicrobial efficacy (European Pharmacopoeia 2000, Chapter 5.1.3)", "type": "cell-based", "description": "The antimicrobial efficacy was tested for three different solutions:\ni) α-(2,4-disulfophenyl)-N-tert-butylnitrone disodium salt, 10 mg/ml;\nii) α-(2,4-disulfophenyl)-N-tert-butylnitrone disodium salt, 400 mg/ml; and\niii) a carbonate buffer control.\nThe tests were performed according to European Pharmacopoeia 2000, Chapter 5.1.3, pages 259 to 260. Seven 10 ml vials were inoculated, one per test organism. During the tests, the vials were stored at controlled room temperature and protected from light. At different time intervals, samples were withdrawn and after appropriate dilutions the numbers of viable microorganisms (colony forming units per ml, CFU/ml) were determined using standard plate count procedures."}},
  "note": "Entries after “also recorded” stand apart in the source; their conditions may differ.",
  "data": [
    {"smiles": "CC(C)(C)[N+]([O-])=Cc1ccc(S(=O)(=O)[O-])cc1S(=O)(=O)[O-].[Na+].[Na+]", "note": "[α-(2,4-disulfophenyl)-N-tert-butylnitrone disodium salt]", "values": [
      {"measurement": "Concentration of the aldehyde (II)", "setting": "[1]; Chelex-100 treated, 2 months +40° C./75% RH", "value": 2.3, "unit": "%"},
      {"measurement": "Starting level of the aldehyde (II)", "setting": "[1]; Chelex-100 treated, start", "value": 0.20, "unit": "%"},
      {"measurement": "Level of the aldehyde (II)", "setting": "[1]; resin treatment omitted, 2 months +40° C./75% RH", "value": 3.0, "unit": "%"},
      {"measurement": "Final Amount of Aldehyde (II)", "setting": "[2]; 200 mg/ml", "value": 3.5, "unit": "Area %"},
      {"measurement": "Initial Amount of Aldehyde (II)", "setting": "[2]; 200 mg/ml", "value": 1.7, "unit": "Area %"},
      {"measurement": "Final Amount of Aldehyde (II)", "setting": "[2]; 300 mg/ml", "value": 3.2, "unit": "Area %"},
      {"measurement": "Initial Amount of Aldehyde (II)", "setting": "[2]; 300 mg/ml", "value": 1.7, "unit": "Area %"},
      {"measurement": "Final Amount of Aldehyde (II)", "setting": "[2]; 400 mg/ml", "value": 2.9, "unit": "Area %"},
      {"measurement": "Initial Amount of Aldehyde (II)", "setting": "[2]; 400 mg/ml", "value": 1.8, "unit": "Area %"},
      {"measurement": "Photodegradation", "setting": "[3]", "value": "no photodegradation; also recorded: no degradation at all"},
      {"measurement": "Number of CFUs per ml - Time after Inoculation", "setting": "E. gergoviae; 10 mg/ml, 6 h", "value": "2.0 × 10^5 CFUs per ml"},
      {"measurement": "Number of CFUs per ml - Time after Inoculation", "setting": "E. gergoviae; 10 mg/ml, 24 h", "value": "≦10 CFUs per ml"},
      {"measurement": "Number of CFUs per ml - Time after Inoculation", "setting": "E. gergoviae; 10 mg/ml, 48 h", "value": "<1", "unit": "CFUs per ml"},
      {"measurement": "Number of CFUs per ml - Time after Inoculation", "setting": "E. gergoviae; 10 mg/ml, 7 days", "value": "<1", "unit": "CFUs per ml"},
      {"measurement": "Number of CFUs per ml - Time after Inoculation", "setting": "E. gergoviae; 10 mg/ml, 14 days", "value": "<1", "unit": "CFUs per ml"},
      {"measurement": "Number of CFUs per ml - Time after Inoculation", "setting": "E. gergoviae; 10 mg/ml, 21 days", "value": "<1", "unit": "CFUs per ml"},
      {"measurement": "Number of CFUs per ml - Time after Inoculation", "setting": "E. gergoviae; 10 mg/ml, 28 days", "value": "<1", "unit": "CFUs per ml"},
      {"measurement": "Number of CFUs per ml - Time after Inoculation", "setting": "E. gergoviae; 10 mg/ml, <1 min", "value": "8.0 × 10^5 CFUs per ml"},
      {"measurement": "Reduction in colony forming units per ml (CFU/ml)", "setting": "E. gergoviae; 400 mg/ml, E. gergovia, within 6 hours", "value": "≥ 10^3 fold"},
      {"measurement": "Number of CFUs per ml - Time after Inoculation", "setting": "E. gergoviae; 400 mg/ml, 6 h", "value": "1.3 × 10^2 CFUs per ml"},
      {"measurement": "Number of CFUs per ml - Time after Inoculation", "setting": "E. gergoviae; 400 mg/ml, 24 h", "value": "<1", "unit": "CFUs per ml"},
      {"measurement": "Number of CFUs per ml - Time after Inoculation", "setting": "E. gergoviae; 400 mg/ml, 48 h", "value": "<1", "unit": "CFUs per ml"},
      {"measurement": "Number of CFUs per ml - Time after Inoculation", "setting": "E. gergoviae; 400 mg/ml, 7 days", "value": "<1", "unit": "CFUs per ml"},
      {"measurement": "Number of CFUs per ml - Time after Inoculation", "setting": "E. gergoviae; 400 mg/ml, 14 days", "value": "<1", "unit": "CFUs per ml"},
      {"measurement": "Number of CFUs per ml - Time after Inoculation", "setting": "E. gergoviae; 400 mg/ml, 21 days", "value": "<1", "unit": "CFUs per ml"},
      {"measurement": "Number of CFUs per ml - Time after Inoculation", "setting": "E. gergoviae; 400 mg/ml, 28 days", "value": "<1", "unit": "CFUs per ml"},
      {"measurement": "Number of CFUs per ml - Time after Inoculation", "setting": "E. gergoviae; 400 mg/ml, <1 min", "value": "5.2 × 10^5 CFUs per ml"},
      {"measurement": "Number of CFUs per ml - Time after Inoculation", "setting": "S. aureus; 10 mg/ml, 6 h", "value": "4.5 × 10^5 CFUs per ml"},
      {"measurement": "Number of CFUs per ml - Time after Inoculation", "setting": "S. aureus; 10 mg/ml, 24 h", "value": "4.5 × 10^3 CFUs per ml"},
      {"measurement": "Number of CFUs per ml - Time after Inoculation", "setting": "S. aureus; 10 mg/ml, 48 h", "value": "≦10 CFUs per ml"},
      {"measurement": "Number of CFUs per ml - Time after Inoculation", "setting": "S. aureus; 10 mg/ml, 7 days", "value": "<1", "unit": "CFUs per ml"},
      {"measurement": "Number of CFUs per ml - Time after Inoculation", "setting": "S. aureus; 10 mg/ml, 14 days", "value": "<1", "unit": "CFUs per ml"},
      {"measurement": "Number of CFUs per ml - Time after Inoculation", "setting": "S. aureus; 10 mg/ml, 21 days", "value": "<1", "unit": "CFUs per ml"},
      {"measurement": "Number of CFUs per ml - Time after Inoculation", "setting": "S. aureus; 10 mg/ml, 28 days", "value": "<1", "unit": "CFUs per ml"},
      {"measurement": "Number of CFUs per ml - Time after Inoculation", "setting": "S. aureus; 10 mg/ml, <1 min", "value": "2.0 × 10^6 CFUs per ml"},
      {"measurement": "Number of CFUs per ml - Time after Inoculation", "setting": "S. aureus; 400 mg/ml, 6 h", "value": "6.7 × 10^5 CFUs per ml"},
      {"measurement": "Number of CFUs per ml - Time after Inoculation", "setting": "S. aureus; 400 mg/ml, 24 h", "value": "8.7 × 10^2 CFUs per ml"},
      {"measurement": "Number of CFUs per ml - Time after Inoculation", "setting": "S. aureus; 400 mg/ml, 48 h", "value": "3.8 × 10^2 CFUs per ml"},
      {"measurement": "Number of CFUs per ml - Time after Inoculation", "setting": "S. aureus; 400 mg/ml, 7 days", "value": "<1", "unit": "CFUs per ml"},
      {"measurement": "Number of CFUs per ml - Time after Inoculation", "setting": "S. aureus; 400 mg/ml, 14 days", "value": "<1", "unit": "CFUs per ml"},
      {"measurement": "Number of CFUs per ml - Time after Inoculation", "setting": "S. aureus; 400 mg/ml, 21 days", "value": "<1", "unit": "CFUs per ml"},
      {"measurement": "Number of CFUs per ml - Time after Inoculation", "setting": "S. aureus; 400 mg/ml, 28 days", "value": "<1", "unit": "CFUs per ml"},
      {"measurement": "Number of CFUs per ml - Time after Inoculation", "setting": "S. aureus; 400 mg/ml, <1 min", "value": "3.3 × 10^6 CFUs per ml"},
      {"measurement": "Number of CFUs per ml - Time after Inoculation", "setting": "C. albicans; 10 mg/ml, 6 h", "value": "7.0 × 10^5 CFUs per ml"},
      {"measurement": "Number of CFUs per ml - Time after Inoculation", "setting": "C. albicans; 10 mg/ml, 24 h", "value": "6.5 × 10^5 CFUs per ml"},
      {"measurement": "Number of CFUs per ml - Time after Inoculation", "setting": "C. albicans; 10 mg/ml, 48 h", "value": "6.5 × 10^5 CFUs per ml"},
      {"measurement": "Number of CFUs per ml - Time after Inoculation", "setting": "C. albicans; 10 mg/ml, 7 days", "value": "<10", "unit": "CFUs per ml"},
      {"measurement": "Number of CFUs per ml - Time after Inoculation", "setting": "C. albicans; 10 mg/ml, 14 days", "value": "<1", "unit": "CFUs per ml"},
      {"measurement": "Number of CFUs per ml - Time after Inoculation", "setting": "C. albicans; 10 mg/ml, 21 days", "value": "<1", "unit": "CFUs per ml"},
      {"measurement": "Number of CFUs per ml - Time after Inoculation", "setting": "C. albicans; 10 mg/ml, 28 days", "value": "<1", "unit": "CFUs per ml"},
      {"measurement": "Number of CFUs per ml - Time after Inoculation", "setting": "C. albicans; 10 mg/ml, <1 min", "value": "6.5 × 10^5 CFUs per ml"},
      {"measurement": "Number of CFUs per ml - Time after Inoculation", "setting": "C. albicans; 400 mg/ml, 6 h", "value": "3.1 × 10^4 CFUs per ml"},
      {"measurement": "Number of CFUs per ml - Time after Inoculation", "setting": "C. albicans; 400 mg/ml, 24 h", "value": "6.1 × 10^3 CFUs per ml"},
      {"measurement": "Number of CFUs per ml - Time after Inoculation", "setting": "C. albicans; 400 mg/ml, 48 h", "value": "<1", "unit": "CFUs per ml"}
    ]}
  ]
}
